Laboratory results from US11213495B2, “Method and composition for decreasing the psychotomimetic side effect and addictive disorder of ketamine” (NATIONAL HEALTH RESEARCH INSTITUTES, priority 2016, dated 2022).

Assays:
Assay type in all cases: in vivo
[1] = test system: Male ICR mice; assay: Prepulse inhibition test (PPI) of acoustic startle; conditions: for PPI: ketamine 30 mg/kg alone
Protocol: The PPI was operated as described in our previous work (Chan et al., 2012a). Briefly, the animals were initially moved from the home cage, weighed, and then placed into the restrainers in the SR-LAB (San Diego Instruments, San Diego, Calif., USA) acoustic startle chambers for 30-min habituation. The test drug (0, 30 and 100 mg/kg) was administered 30 min prior to ketamine (30 mg/kg) or saline injection. After administration of ketamine or saline, the experiment started with a 5-min adaptation period during which the animals were exposed to 67-dB background white noise, and this background noise was continued throughout the session. Then, the following adaptation period startle session began with five initial startle stimuli (120 dB bursts of white noise, 40 ms duration). After the first five initial stimuli, mice received five different trial types: pulse alone trials (120 dB bursts of white noise, 40 ms duration), three prepulse and pulse trials in which 76, 81, or 86 dB white noise bursts (9, 14, and 19 dB above background) of 20 ms duration preceded 120 dB pulse by 100 ms prepulse onset to pulse onset, and no-stimuli trials during which only background noise was applied. Each of these trial types was presented five times in randomized order. The inter trial interval was 7-23 s, and the test lasted 15 min in total. Prepulse inhibition was calculated as the percent inhibition of the startle amplitude evoked by the pulse alone: % PPI=(magnitude on pulse alone trial−magnitude on prepulse+pulse trial/magnitude on pulse alone trial)×100.

[2] = test system: Male ICR mice; assay: Emergence test
Protocol: The emergence test was examined in a test box (35×35×30 cm) contained an aluminum cylinder (10 cm deep×6.5 cm diameter) located lengthwise along one wall, with the open end 10 cm from the corner. The test drug (0, 30 and 100 mg/kg) or ketamine (10 mg/kg) was administered 30 min prior to the test. Mice were placed into the cylinder and tested for 10 min and scored three behavioral parameters: the latency to leave the cylinder, the number of entries into the cylinder and the total time spent inside the cylinder.

[3] = test system: Male Sprague-Dawley rats; assay: Ketamine intravenous self-administration (IVSA) under progressive ratio (PR) schedule
Protocol: The dose-dependent effects of betaine and its metabolite DMG on ketamine addiction were evaluated by the intravenous self-administration (IVSA) paradigm under a progressive ratio (PR) schedule. Animals were implanted indwelling catheters flushing of ketamine (0.5 mg/kg/per infusion), termed the training dose, under a FR1 schedule during daily 3-h sessions. After acquisition of stable responding for ketamine (criterion of less than 20% deviation from the mean of the total number of reinforcers earned in three consecutive sessions for each rat), the ketamine reinforcement schedule was changed to FR2 and maintained until responding stabilized at least for 3 days. Then, the PR schedule was conducted. The lever presses required to gain an infusion was determined by: 5×e^(infusion number×0.2)−5 (i.e., 1, 2, 4, 6, 9, […], 15, 20, 25, 32, etc). […] The dose-dependent effects of betaine of self-administration of various doses of ketamine ([…]) were assessed by pretreatment 30 min prior to their daily operant session using a within-subject Latin square design.

[4] = test system: Male ICR mice; assay: Rotarod test (motor coordination)
Protocol: Motor coordination was examined using an automated rotarod device (Singa; Technology Co., Ltd, Taiwan) for a maximum of 6 mice. A computer recorded the latency to fall in seconds. During two-three days training period, the mice were first trained on the rotarod at a constant speed of 20 rotations per minute (rpm) until all of the mice were able to spend at least 3 min on the road. The test drug (0, 30 and 100 mg/kg) was administered 30 min prior to the ketamine (30 mg/kg) or saline injection. Then, the mice were tested 10, 15, 20, 25, and 30 min after ketamine injection.

[5] = test system: Male ICR mice; assay: Forced swim test (FST): duration of immobility, struggling and swimming
Protocol: FST was conducted for two consecutive days. Mice were placed in a Plexiglas cylinder (33.5 cm height, 20 cm diameter) filled with 25±2° C. water to a height of 18-20 cm. For the first exposure, mice were placed in the water for 15 min (pre-test session) followed by […]. Twenty-four hours later (day 1 test session), various doses of test drug (at 0, 30 and 100 mg/kg) was administered 30 min prior to the ketamine (10 mg/kg) or saline. Then, the mice were tested 30 min after ketamine injection which placed in the water again for a 6 min session (test session), the first 2 minutes has elapsed. Immobility was assigned when no additional activity was observed other than that required to keep the head above the water.
This experiment included a control group and various doses of ketamine (3, 10, 15 mg/kg), betaine (10, 20, 30 mg/kg) and betaine (10, 20, 30 mg/kg) pretreatment prior to ketamine (fixed dose at 10 mg/kg). […] There was no significant effect of test session or interaction.

[6] = test system: Male ICR mice; assay: Novelty suppressed feeding test (NSF); conditions: 1 h prior to test, vs saline-treated mice
Protocol: NSF test consisted of food-depriving mice overnight (24 hours). The test drug (10, 20 and 30 mg/kg), ketamine (10 mg/kg) or saline was administered 1 h prior to the test. At the time of testing, a single food pellet placed in the middle of a novel environment (a test box 40×40×40 cm). The latency to start feeding was used as a measure for depressive-like or anxiety-like behavior.

[7] = ketamine 15 mg/kg, day 7 retest session, vs control
[8] = betaine 30 mg/kg pretreatment prior to ketamine 10 mg/kg, day 1 test session

CNC1(c2ccccc2Cl)CCCCC1=O (racemic) [ketamine]
PPI [1]: reduced | PPI ([1]; listed as Ketamine): significantly reduced | total time spent inside the cylinder ([2]; ketamine 10 mg/kg, post hoc): significantly reduced | ketamine consumption over the dose-response curve ([3]; ketamine 0.1-0.5 mg/kg/infusion, control (vehicle-treated) animals): increase | latency to stay on the rotarod ([4]; ketamine 30 mg/kg, 10-30 min after administration): significantly decreased | duration of immobility in FST ([5]; ketamine 10 mg/kg, DMG experiment, tested 30 min after ketamine): significantly decreased | duration of struggling in FST ([5]; ketamine 15 mg/kg, day 1 test session, vs control): significantly increased | duration of struggling in FST [5, 7]: significantly increased | duration of swimming in FST [5, 7]: significantly increased | duration of immobility in FST ([5]; ketamine 15 mg/kg, day 7 retest session, vs vehicle control): significantly decreased | duration of struggling in FST ([5]; ketamine 15 mg/kg, over both sessions): significantly increased | duration of immobility in FST ([5]; ketamine 3, 10 and 15 mg/kg, day 1 test session, vs vehicle control): significantly reduced | duration of swimming in FST ([5]; ketamine 10 and 15 mg/kg, day 1 test session, vs control): significantly increased | duration of immobility in FST ([5]; ketamine 10 and 15 mg/kg, main effect over both sessions): significantly decreased | duration of swimming in FST ([5]; ketamine 10 and 15 mg/kg, over both sessions): significantly increased | latency to feed in the NSF ([6]; ketamine 10 mg/kg): significantly reduced

C[N+](C)(C)CC(=O)O [betaine]
ketamine-induced disruption of PPI ([1]; betaine 100 mg/kg pretreatment, ketamine 30 mg/kg): significantly attenuated | reduction of PPI ([1]; betaine prior to saline): did not | anxiolytic effect in the emergence test ([2]; betaine 30 and 100 mg/kg): did not show anxiolytic effect | reduction of ketamine IVSA ([3]; betaine 100 mg/kg pretreatment, PR schedule): 3-5 times | IVSA of ketamine ([3]; betaine pretreatment (30 and 100 mg/kg), ketamine 0.1-0.5 mg/kg/infusion, PR schedule): dose-dependently reduced | significant effective dose for reduction of ketamine IVSA ([3]; betaine pretreatment, PR schedule): 30 mg/kg | ketamine-induced motor in coordination ([4]; betaine 30 and 100 mg/kg i.p. 30 min prior to ketamine 30 mg/kg): significantly reduced | duration of immobility in FST compared with ketamine (10 mg/kg) alone [5, 8]: significantly shorter duration of immobility | duration of swimming in FST compared with ketamine (10 mg/kg) [5, 8]: longer duration of swimming | duration of immobility in FST compared with ketamine (10 mg/kg) alone ([5]; betaine 30 mg/kg pretreatment prior to ketamine 10 mg/kg, over both sessions): significantly shorter duration of immobility | duration of struggling in FST ([5]; betaine 30 mg/kg, day 7 retest session, vs control): significantly increased | duration of immobility in FST ([5]; betaine 10, 20 and 30 mg/kg pretreatment prior to ketamine 10 mg/kg, day 7 retest session, vs vehicle control): significantly decreased | duration of immobility in FST ([5]; betaine 10, 20 and 30 mg/kg pretreatment prior to ketamine 10 mg/kg, main effect over both sessions): significantly decreased | duration of immobility in FST ([5]; betaine 10, 20 and 30 mg/kg prior to ketamine 10 mg/kg, day 1 test session, vs vehicle control): significantly reduced | duration of swimming in FST ([5]; betaine 10, 20 and 30 mg/kg prior to ketamine 10 mg/kg, day 7 retest session, vs control): significantly increased | duration of swimming in FST ([5]; betaine 20 and 30 mg/kg, day 1 test session, vs control): significantly increased | duration of immobility in FST ([5]; betaine 20 and 30 mg/kg, day 1 test session, vs vehicle control): significantly reduced | duration of immobility in FST ([5]; betaine 20 and 30 mg/kg, day 7 retest session, vs vehicle control): significantly decreased | duration of immobility in FST ([5]; betaine 20 and 30 mg/kg, main effect over both sessions): significantly decreased | duration of struggling in FST ([5]; betaine 20 and 30 mg/kg, over both sessions): significantly increased | latency to feed in the NSF ([6]; betaine 30 mg/kg i.p.): significantly reduced
